Laboratory results reported in patent US6878699B1, “Taccalonolide microtubule stabilizing agents” (University of Hawaii, priority 1999, dated 2005).

Legend:
[1] = system: SKVLB-1 cell line (sub-line of SK-OV-3 selected for resistance to vinblastine, P-glycoprotein-overexpressing)
Protocol: (§1) A-10 rat aortic smooth muscle cells, SK-OV-3 human ovarian carcinoma cell line and HeLa cells were obtained from the American Type Culture Collection (Manassas, Va.) and were cultured in BME containing 10% FBS and 50 μg/1 mL gentamycin sulfate. […] The A-10, HeLa, SK-OV-3, and SKVBL-1 cells were grown in Basal Medium Eagle containing Earle's salts, 50 μg/ml gentamycin, and 10% fetal bovine sorum (Hyclone, Logan Utah). Vinblastine was added to a final concentration of 1 μg/mL to SKVLB-1 cells 24 hours after passage to maintain selection pressure for P-glycoprotein-overexpressing cells.
(§2) The IC50 for inhibition of cell proliferation was determined by measuring cell-associated protein after drug treatment using the sulforhodamine B assay (see, for example, J. Natl. Cancer Inst. 82:1107-1112 (1990) and Drug Development Res. 34:91-109 (1995)).
(§3) The IC50 for each cell line was calculated from the dose response curves. The resistance factor was calculated by dividing the IC50 of the drug sensitive cell line by the IC50 of the drug resistant cell line. The values represent the mean of 3 or 4 experiments ± the SD.

[2] = system: SKVLB-1 cell line (sub-line of SK-OV-3 selected for resistance to vinblastine, P-glycoprotein-overexpressing); settings: SK-OV-3 versus SKVLB-1; Mooberry et al. 1999, Smith et al. 1994; cited from earlier work
[3] = system: SK-OV-3 human ovarian carcinoma cell line; test: Inhibition of cell proliferation, sulforhodamine B (SRB) assay; type: cell-based; settings: 48 hr treatment, mean of 3 or 4 experiments ± SD
Protocol: as §1, §2, §3

[4] = system: purified glycerol-free bovine brain tubulin; test: Assembly of purified tubulin (turbidity); type: biochemical; settings: for Potency in tubulin polymerization relative to Taxol/paclitaxel: compared with 2 μM paclitaxel
Protocol: The assembly of purified tubulin was monitored spectrophotometrically by the change in absorbance at 340 nm. Purified glycerol-free bovine brain tubulin (TL-238, Cytoskeleton, Denver, Colo.) was solubilized in ice cold G-PEM buffer (80 mM PIPES, pH 6.9, 1 mM MgCl2, 1 mM EGTA and 1 mM GTP) and taccalonolide, Taxol or vehicle control was added and mixed well. The final concentration of tubulin was 1 mg/ml and ethanol concentration was 1% or less. An aliquot of the mixture was transferred to a room temperature 96 well plate and tubulin polymerization monitored for 60 min. at 35° C. in a temperature controlled microplate spectrophotometer.

Bc1-2 and caspase 3 = settings: 18 and 24 hrs following treatment
Protocol: Following drug exposure the cells were harvested and cellular proteins extracted in radioimmunoprecipitation buffer in the presence of protease inhibitors as described previously (see Mooberry et al., Supra). The protein concentrations of the samples were determined (Pierce Reagent, Rockford, Ill.) and cell lysate aliquots containing equal concentrations of protein were separated, transferred, probed with specific antibodies, and detected as previously described (see Mooberry et al., in Cancer Res. 59:653-660 (1999)). The Bc1-2 and caspase 3 antibodies were purchased from PharMingin (San Diego, Calif.).

[5] = system: MDA-MB-435 human mammary adenocarcinoma cell line; test: Inhibition of cell proliferation, sulforhodamine B (SRB) assay; settings: read-out: IC50 inhibition of proliferation, MDA-MB-435, 48 hr treatment, mean of 3 or 4 experiments ± SD
Protocol: as §1, §2, §3

[6] = system: SKVLB-1 cell line (sub-line of SK-OV-3 selected for resistance to vinblastine, P-glycoprotein-overexpressing); test: Inhibition of cell proliferation, SRB assay, multidrug-resistant line
Protocol: as §1, §2, §3

[7] = system: A-10 rat aortic smooth muscle cells; test: Indirect immunofluorescence of microtubules, mitotic spindles and nuclei; settings: low concentration 0.5 μM; cell line not specified (A-10 or HeLa)
Protocol: A-10 cells were grown to 70-85% confluency on glass coverslips in BME/10% FBS. Drug compounds in PBS were added to the indicated final concentrations and cells were incubated for an additional 24 hours. For the staining of microtubules and intermediate filaments, the cells were fixed with cold methanol for 5 minutes, blocked for 20 minutes with PBS containing 10% calf serum to block nonspecific binding sites, and incubated at 37° C. for 60-90 min with monoclonal anti-β-tubulin at the dilutions recommended by the manufacturer. Bound primary antibodies were subsequently visualized by a one hour incubation with fluorescein (FITC)-conjugated sheep antimouse IgG (F-3008; Sigma). The coverslips were washed, stained with 0.1 μg/mL DAPI for 10 minutes, mounted on microscope slides and the fluorescence patterns were examined and photographed using a Zeiss Axioplan microscope equipped with epifluorescence optics for fluorescein and DAPI.

CC(=O)O[C@H]1C(=O)[C@@]2(C)[C@H]([C@H](OC(=O)c3ccccc3)[C@]3(O)C[C@H](OC(=O)[C@H](O)[C@@H](NC(=O)c4ccccc4)c4ccccc4)C(C)=C1C3(C)C)[C@]1(OC(C)=O)CO[C@@H]1C[C@@H]2O [Paclitaxel]
inhibition [1]: ≤ 70%
Resistance factor (literature) [2]: greater than 58,000

COc1ccc(C[C@H]2NC(=O)/C=C/C[C@@H]([C@H](C)[C@H]3O[C@@H]3c3ccccc3)OC(=O)[C@H](CC(C)C)OC(=O)[C@H](C)CNC2=O)cc1Cl [cryptophycin 1]
Resistance factor (literature) [2]: 1.1

C=C1C[C@H](C)C[C@@H]2CC=C[C@@H](C/C=C\C(=O)O[C@H]([C@@H](O)/C=C/[C@@H]3CC(C)=CCO3)C[C@@H]3O[C@H]3[C@@H](O)C1)O2 [laulimalide]
Resistance factor (literature) [2]: 105

taccalonolide A
IC50 [3]: 2300 nM
Effect on polymerization of purified tubulin ([4]; 2 μM and 200 μM, 35° C., 60 min): stimulated the polymerization of tubulin
Potency in tubulin polymerization relative to Taxol/paclitaxel ([4]; listed as Taccalonolide): much less potent than Taxol
Potency in tubulin polymerization relative to Taxol/paclitaxel ([4]; listed as taccalonolide): much less potent than paclitaxel
p17 subunit of activated caspase 3 by immunoblot (Bc1-2 and caspase 3): detected
IC50 [5]: 2100 nM
Inhibition of proliferation of SKVLB-1 (in words) ([6]; P-glycoprotein overexpressing line): completely inhibit the proliferation
Resistance factor ([6]; SK-OV-3 (drug-sensitive) versus SKVLB-1 (drug resistant) IC50): 285
Substrate for P-glycoprotein mediated drug transport ([6]; inferred from resistance factor SK-OV-3/SKVLB-1): poor substrate
IC50 ([6]; read-out: IC50 inhibition of proliferation, SKVLB-1, 48 hr treatment, SRB assay, multidrug-resistant line, mean of 3 or 4 experiments ± SD): 656 ± 42 µM
First observable cellular change in dose-response study [7]: abnormal coordination of the DNA in the metaphase plate during mitosis
